Reference: US12275976B2, “Phloroglucinol-resistant cell, in particular yeast” (COMPAGNIE GENERALE DES ETABLISSEMENTS MICHELIN, priority 2019, dated 2025)
Values after ≈ are worked out from the molar mass of the structure shown.

Experiments:
[1] = tested on: bacterial strain of Escherichia coli (ECAO50, derived from Escherichia coli K12); assay: microbe, parasite or virus in culture; settings: 24 h
Procedure: (§1) In order to know the threshold of phloroglucinol tolerance of bacteria or of yeasts, growth kinetics were prepared in the presence of various concentrations of phloroglucinol. These preliminary experiments aimed to evaluate their EC50.
(§2) The experiment was carried out in the following way. The phloroglucinol was dissolved at the concentration of 15 g·l^−1 in complete medium (Yeast Extract 1%+BactoPeptone 2%) containing 2% glucose as carbon source (YPD medium). The culture media containing lower phloroglucinol concentrations were obtained by diluting this first medium in the same YPD medium containing 2% glucose.
(§3) In order to carry out the experiment, the wild-type yeast or bacterial cells were inoculated at an OD600 nm of 0.05 into the various media, thus containing, as soon as the cultures were started, either 0 (positive control for growth indicated C+), 1, 2.5, 5, 7.5, 10 or 15 g·l^−1 of phloroglucinol. The cultures were carried out in 48-well microplates, at 28° C. for the yeasts, at 37° C. for the bacterial strain, with vigorous shaking for 24 h. Two yeast strains (Saccharomyces cerevisiae) and one bacterial strain (Escherichia coli) were tested.

CC787-1B yeast strain = assay: Growth kinetics of yeast cells in the presence of increasing phloroglucinol concentrations
Procedure: as §1, §2, §3

SNQ2 = molecular target: T1, SNQ2 (Saccharomyces cerevisiae, UniProt P32568); assay: Phloroglucinol tolerance of yeast strains overexpressing PDRs (OD600 nm at 24 h); type: cell-based; settings: inferred from SNQ2 overexpression lifting toxicity at 20 g·l^−1 phloroglucinol
T1 construct: expressed in transfected cells; host or cells: Saccharomyces cerevisiae, gene integrated at the JLP1 locus under the pCCW12 promoter (clones YA2786-1 and YA2786-2)
Text: The genes encoding the PDR proteins were amplified from yeast (W303-1A) genomic DNA by PCR (“polymerase chain reaction”) and cloned in plasmids. The accuracy of the sequence was verified by sequencing. The various genes encoding the PDRs were integrated into the genome at the JLP1 locus according to the structure described in FIG. 4A. Each strain constructed bears a YA number, and a library of 28 yeast strains overexpressing a PDR transporter was thus created, in a proportion of two clones per transporter.
In order to test the impact of the PDR overexpression on the phloroglucinol tolerance at high phloroglucinol concentration (>15 g·l^−1), the strains were cultured as follows.
The phloroglucinol was dissolved at the concentration of 20 g·l^−1 in YPD medium containing 2% glucose as carbon source. In order to carry out the experiment, the yeasts expressing each PDR were inoculated at an OD600 nm of 0.05. The cultures were carried out in 48-well microplates, incubated with agitation at 28° C. for 24 h. After 24 h, the OD600 nm is measured. FIG. 5 represents the OD600 nm values obtained at the end of the culture.

yeast cells = assay: Phloroglucinol toxicity in yeast with ethanol added after 20 h of culture; settings: 20 g/l of phloroglucinol, 50 g·l^−1 ethanol added at 20 h, read at 48 h
Procedure: The toxicity of phloroglucinol in the presence of ethanol added after 20 h of culture was tested.
The experiments were carried out in an Erlenmeyer flask with vigorous stirring in complete medium containing 2% glucose as carbon source. The yeast cells were inoculated at an OD600 nm of 0.05 from precultures in complete medium. The cultures are completed with increasing concentrations of phloroglucinol (0, 1, 5, 10, 15, 20 g/l) and incubated for 48 h. Two series of Erlenmeyer flasks were prepared. In the second series, 50 g·l^−1 of ethanol are added at 20 h. The growth is monitored by taking samples at 18 h, 20 h, 22 h, 24 h, 42 h and 48 h, and measuring the OD600 nm.

T1 sequence (P32568 whole entry): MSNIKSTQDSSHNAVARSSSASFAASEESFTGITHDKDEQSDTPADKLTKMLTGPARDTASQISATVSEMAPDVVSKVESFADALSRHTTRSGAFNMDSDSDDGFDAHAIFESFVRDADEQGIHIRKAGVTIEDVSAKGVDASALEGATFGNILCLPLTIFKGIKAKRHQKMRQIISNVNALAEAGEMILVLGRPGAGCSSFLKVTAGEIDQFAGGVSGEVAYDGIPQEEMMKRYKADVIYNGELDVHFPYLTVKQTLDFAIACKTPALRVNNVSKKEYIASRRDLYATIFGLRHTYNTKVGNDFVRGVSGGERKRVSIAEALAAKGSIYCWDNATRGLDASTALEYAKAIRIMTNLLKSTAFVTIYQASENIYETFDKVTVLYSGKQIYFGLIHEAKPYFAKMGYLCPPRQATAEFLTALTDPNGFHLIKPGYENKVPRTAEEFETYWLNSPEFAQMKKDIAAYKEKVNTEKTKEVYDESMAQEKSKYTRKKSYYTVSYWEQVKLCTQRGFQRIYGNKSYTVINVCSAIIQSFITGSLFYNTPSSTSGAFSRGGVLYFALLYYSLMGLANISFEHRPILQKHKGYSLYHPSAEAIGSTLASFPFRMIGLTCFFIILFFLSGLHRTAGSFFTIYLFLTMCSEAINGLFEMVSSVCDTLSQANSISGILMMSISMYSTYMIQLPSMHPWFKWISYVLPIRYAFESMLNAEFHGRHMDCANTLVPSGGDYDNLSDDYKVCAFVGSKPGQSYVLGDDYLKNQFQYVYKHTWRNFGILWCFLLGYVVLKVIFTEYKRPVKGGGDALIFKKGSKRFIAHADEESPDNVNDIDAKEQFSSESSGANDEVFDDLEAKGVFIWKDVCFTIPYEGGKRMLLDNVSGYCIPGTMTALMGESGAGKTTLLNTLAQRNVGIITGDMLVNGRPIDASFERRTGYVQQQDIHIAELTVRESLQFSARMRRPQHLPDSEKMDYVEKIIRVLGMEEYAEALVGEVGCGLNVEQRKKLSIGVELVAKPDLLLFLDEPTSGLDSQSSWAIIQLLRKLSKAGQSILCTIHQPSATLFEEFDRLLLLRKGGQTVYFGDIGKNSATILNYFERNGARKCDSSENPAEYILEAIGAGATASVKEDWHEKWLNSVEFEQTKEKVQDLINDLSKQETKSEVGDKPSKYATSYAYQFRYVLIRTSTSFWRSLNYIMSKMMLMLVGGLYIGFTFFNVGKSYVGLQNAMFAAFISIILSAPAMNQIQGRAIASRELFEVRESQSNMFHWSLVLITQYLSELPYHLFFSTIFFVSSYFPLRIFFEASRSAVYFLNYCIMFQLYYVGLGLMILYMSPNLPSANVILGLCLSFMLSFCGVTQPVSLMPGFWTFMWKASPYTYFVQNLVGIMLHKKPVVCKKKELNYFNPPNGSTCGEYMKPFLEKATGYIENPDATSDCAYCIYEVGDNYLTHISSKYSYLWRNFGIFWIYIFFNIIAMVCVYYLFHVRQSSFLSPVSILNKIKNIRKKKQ

## Oc1cc(O)cc(O)c1 [phloroglucinol, benzene-1,3,5-triol]
[1]; 37° C.
  concentrations giving total inhibition of the growth: greater than or equal to 2.5 g·l^−1
[1]; Escherichia coli, read-out: EC50 of phloroglucinol on growth
  EC50: ~750 µg/mL (≈ 5.95 mM)
[1]; at the concentration of 1 g·l^−1, 37° C.
  inhibition of the growth: very considerable inhibition of the growth
CC787-1B yeast strain; Saccharomyces cerevisiae, 24 h, read-out: EC50 of phloroglucinol on growth
  EC50: > 10000 µg/mL
CC787-1B yeast strain; conclusion
  concentration from which phloroglucinol toxicity on yeast cells is apparent: ≥ 15000 µg/mL
CC787-1B yeast strain; only in this medium among 1-15 g·l^−1, 28° C., 24 h
  concentration at which significant inhibition of the growth is observed: 15000 µg/mL
SNQ2
  transporter substrate status: substrate for SNQ2
Yeast cells
  phloroglucinol inhibition in the presence of ethanol versus without ethanol: slightly greater
